Where “and” joins values, the source holds several entries; their conditions need not be identical. Identical values can stand only once.
Tests used:
Format in all cases: in vivo, mouse
[1] = tested on: cleaved caspase-3; assay: Cleaved caspase-3 in striatum, 3-NP model with RB5; conditions: peptide 20 mg/kg i.p. twice a day plus 3-NP 50 mg/kg i.p. once a day, 7 days; individual mice
Source text: (§1) In ex‐vivo and in‐vivo immunofluorescence experiments, the number of p‐S6 or p‐AcH3 immunoreactive neurons among NeuN‐positive neurons was counted in 2–3 consecutive striatal sections per mouse in four fields per section. Caspase 3‐positive cells were quantified among NeuN‐positive neurons in each slide and expressed as percentage (ratio between caspase‐3‐positive cells and total NeuN‐positive neurons) for each field acquired through the slide. The number of cells showing mutant Huntingtin inclusions were expressed as a percentage of mutant Huntingtin‐positive cells among DAPI‐positive cells.

[2] = tested on: cleaved caspase-3; assay: Cleaved caspase-3 in striatum of HdhQ111/+ mice treated with RB5; conditions: for cleaved caspase-3 in striatum (Fig 5 panel c): individual animals
Description: Immunofluorescence was performed as described in Papale et al ([2016]). Briefly, 1 h after blocking in 5% normal goat serum, slices were incubated overnight at 4°C with the following primary antibodies: anti‐phospho (Ser10)‐acetylated (Lys14) histone H3 (1:1,000, Millipore), anti‐phospho‐S6 ribosomal protein (Ser235/236) (1:200, Cell Signaling Technology) anti‐phospho‐S6 ribosomal protein (Ser240/244) (1:200, Cell Signaling), cleaved caspase‐3 (1:200, Cell Signaling Technology), anti‐mutant Huntingtin (1:100, Developmental Studies Hybridoma Bank, University of Iowa, #MW8), and NeuN (1:1,000, Millipore). Corresponding secondary antibodies (Alexa Fluor 546 conjugated anti‐mouse (1:200, Thermo Fisher Scientific), Alexa Fluor 488 conjugated anti‐rabbit (1:500, Thermo Fisher Scientific) and Pacific Blue goat anti‐mouse (1:200, Thermo Fisher Scientific) were incubated at room temperature for 1 h. Sections stained for mutant Huntingtin were incubated with DAPI for 20 min. Sections were subsequently mounted with fluorescent mounting medium (DAKO). Single and double‐labeled images ([…]) were obtained at 40× magnification from the striatum using a laser scanning confocal microscope (Leica SP2) equipped with the corresponding lasers and appropriate filter sets to avoid the crosstalk between the fluorochromes.
as §1

[3] = tested on: pERK1/2; assay: pERK1/2 in dorsal striatum, MPTP model
Description: (§2) Immunohistochemistry was performed as described in Papale et al ([2016]). Briefly, 1 h after blocking in 5% normal goat serum and 0.1% Triton X‐100 solution, free‐floating sections were incubated overnight at 4°C with one of the following primary antibodies: anti‐phospho‐p44/42 MAP kinase (Thr202/Tyr204) (1:200, Cell Signaling Technology #9101), anti‐phospho–Elk‐1 (Ser383) (1:100, Cell Signaling #9181), anti‐phospho‐Kv4.2 (Thr607)‐R (1:100, Santa Cruz sc22254‐R), anti‐phospho‐MSK‐1 (1:100 Cell Signaling Technology #9595), anti‐phospho‐MEK1/2 (Ser218/222) (1:100, sc‐7995 Santa Cruz Biotechnology), c‐Fos (1:100, sc‐52 Santa Cruz Biotechnology), tyrosine Hydroxylase (monoclonal 1:1,000, Sigma Aldrich, Italy) and anti‐DARPP‐32 (H3) (1:100, Santa Cruz Biotechnology, #sc‐271111) overnight at 4°C. […]
(§3) For in vivo immunohistochemistry experiments, images were acquired from the dorsal striatum using a Leica DM IRB microscope under a 20× objective. The number of p‐ERK, p‐MSK‐1, p‐ELK, p‐MEK‐1, p‐VG K+, c‐Fos, and DARPP‐32 positive cells was counted in 2–3 consecutive sections per mouse, bilaterally and averaged across the sections using the ImageJ software by a blind investigator to the condition. Estimation of nigral cell loss was assessed by quantifying the number of TH‐immunopositive neurons of the SNc in 360 μm‐spaced sections for each animal. […]

[4] = tested on: cleaved caspase-3; assay: Cleaved caspase-3 in dentate gyrus of Tg2576 mice; conditions: for cleaved caspase-3 in dentate gyrus (Fig 5 panel l): individual animals
[5] = tested on: pERK1/2; assay: pERK1/2 in striatum of zQ175 females after RB5; conditions: zQ175 females and WT controls, RB5 for 9 days
Description: as §2, §3

GRKKRRQRRRPPQGGGGGEPRRTEGVGPGVPGEVEMVKGQPFDV [RB5, six D-amino acids, acetylated N-terminus]
Cleaved caspase-3-positive cells among NeuN-positive neurons [1]: significantly reduced neuronal death | Striatal neuronal degeneration (cleaved caspase-3) ([2]; 10 month-old HdhQ111/+ mice, 20 mg/kg i.p. for 8 days): attenuated striatal neuronal degeneration | cleaved caspase-3 in striatum (Fig 5 panel c) ([2]; HdhQ111/+ mice): 2.0154 and 1.547 and 0.5041 and 1.332 and 1.4192 | cleaved caspase-3 in striatum (Fig 5 panel c) ([2]; WT mice): 1.055 and 1.796 and 1.192 and 0.7349 and 0.4238 | pERK1/2 in dorsal striatum of MPTP-treated animals ([3]; MPTP 20 mg/kg i.p. and RB5 20 mg/kg i.p. for 4 days): further enhanced | pERK1/2 in dorsal striatum (Fig 5 panel i) ([3]; MPTP model, individual animals): 320.238 and 468.254 and 523.81 and 295.238 and 784.921 and 378.571 and 564.683 and 633.333 and 362.302 and 348.413 and 268.452 and 448.016 and 342.46 and 421.429 | Preapoptotic phenotype measured by caspase-3 ([4]; Tg2576 mice, 7 months old, 20 mg/kg i.p. for 7 days): significantly reduced the preapoptotic phenotype | cleaved caspase-3 in dentate gyrus (Fig 5 panel l) ([4]; Tg2576 mice): 0.77 and 0.91 and 0.62 and 1.34 and 0.79 and 1.19 and 1.3 | cleaved caspase-3 in dentate gyrus (Fig 5 panel l) ([4]; WT mice): 0.76 and 0.9 and 0.39 and 0.92 and 0.68 and 0.62 and 0.56 and 0.58 and 0.59 | pERK1/2 levels in striatum [5]: enhanced
